According to PMC9783571, “Component Characterization, In Vitro Activities and Molecular Mechanism of Cydonia oblonga Mill. against Diabetic” (Pharmaceuticals, 2022):
In brackets after ≈: the same amount, converted by molar mass.

target: T1, α-glucosidase; test: p-NPG hydrolysis, absorbance […] nm; assay type: biochemical; settings: p-NPG (50 μL of 3 mM), potassium phosphate pH 7.4, 37 °C, 1 h
T1 construct: gene MAL12; enzyme preparation

| IC50 [mg/mL] | Structure (SMILES) |
| --- | --- |
| 0.2508 (≈ 928 µM) | O=c1cc(-c2ccc(O)cc2)oc2cc(O)cc(O)c12 [Apigenin] |
| > 5.0000 | Oc1cc(O)c2c(c1)O[C@H](c1ccc(O)c(O)c1)[C@H](O)C2 [Epicatechin] |
| 0.1588 (≈ 502 µM) | COc1cc(-c2oc3cc(O)cc(O)c3c(=O)c2O)ccc1O [Isorhamnetin] |
| 0.1904 (≈ 665 µM) | O=c1cc(-c2ccc(O)c(O)c2)oc2cc(O)cc(O)c12 [Luteolin] |
